The record followed here is patent publication EP2135515A1, “Taste enhancing compound” (FIRMENICH SA, priority 2008, dated 2009).

The nature of the first test: Half-tongue test: recognition threshold for velvety mouthcoating, trained sensory panel. The test is classed as in vivo. The following applies: Homo sapiens, pH 4.5, read-out: Mouthfeel threshold. On the procedure:
The threshold at which the compound delivered a noticeable velvety mouthcoating was evaluated as follows:
The isolated compound was suspended in water, and, after removing the volatiles in high vacuum (<5 mPa), was freeze-dried twice.
The freeze-dried sample was taken up in water, adjusted to pH 4.5 using hydrochloric acid, and stepwise diluted (1+1) with water. This is referred to herein as "sample 1". A second sample was prepared comprising water (Evian®) adjusted to pH 4.5 using hydrochloric acid. This is referred to herein as "sample 2". Both samples were stored at room temperature.
Twelve panelists with no history of known taste disorders were trained to evaluate the taste of aqueous solutions (2 mL each) of the following standard taste compounds in bottled water (pH 4.5) by using a triangle test as described in the literature (20): sucrose (50 mmol/L) for sweet taste, lactic acid (20 mmol/L) for sour taste, NaCl (20 mmol/L) for salty taste, caffeine (1 mmol/L) for bitter taste, sodium glutamate (3 mmol/L) for umami taste. For the puckering astringency and the velvety astringent, mouth-drying oral sensation, the panel was trained by using gallustannic acid (0.05%) and quercetin-3-O-β-D-glucopyranoside (0.01 mmol/L), respectively, using the half-tongue test (see Scharbert S., Holzmann N., Hofmann T. Identification of the astringent taste compounds in black tea infusions by combining instrumental analysis and human bioresponse. J. Agric. Food Chem. 2004, 52, 3498-3508).
Samples 1 and 2 were presented in order of increasing concentrations to the panel. The panelists, wearing noseclips, were asked to determine the dilution at which a difference was detectable between the samples using the "half-tongue" test. The test was performed three times. When the panelist selected correctly, the same concentration was presented again besides one blank as a proof for the correctness of the data. The geometric mean of the last and the second last concentration was calculated and taken as the individual recognition threshold. The values between individuals and between five separate sessions differed by not more than plus or minus one dilution step.
For comparison with the mouthfeel-enhancing threshold of known ingredients in vanilla extract, the half-tongue test was repeated using vanillic acid, p-hydroxybenzoic acid, guaiacol, p-hydroxybenzaldehyde and vanillin respectively instead of sample 1.
On to `O=Cc1ccc(O)cc1` [p-hydroxybenzaldehyde], for which the minimal effective concentration was found to be 205 µM.

Still in this test, the particulars now being: Homo sapiens; half-tongue test, in water pH 4.5, twelve trained panelists wearing noseclips; geometric mean of last and second last concentration; read-out: Mouthfeel threshold.
`COc1ccccc1O` [Guaiacol]: the minimal effective concentration amounted to 240 µM. As to `COc1cc(-c2cc(OC)c(O)c(-c3ccc(O)c(OC)c3)c2)ccc1O` [Sample 1, triguaiacol], the minimal effective concentration was determined as 0.01 µM.

As to `COc1cc(C(=O)O)ccc1O` [Vanillic acid], the minimal effective concentration is 320 µM. Regarding `COc1cc(C=O)ccc1O` [Vanillin], the minimal effective concentration stood at 150 µM.

Consider `O=C(O)c1ccc(O)cc1` [p-hydroxybenzoic acid], for which the minimal effective concentration is 250 µM.
